Assay results from US9284309B2, “Di- and tri-heteroaryl derivatives as inhibitors of protein aggregation” (Neuropore Therapies, Inc., priority 2012, dated 2016).

Each molecule was assayed against T1, α-synuclein (Homo sapiens, UniProt P37840) (assay: calcein assay of membrane integrity (reversal of α-synuclein-mediated disruption of cell membranes, FLIPR)). Settings: 0.01 μM test compound; neuronal cells infected with LV-α-synuclein, 24 h treatment in serum free media, calcein retention.
T1 construct: expressed in transfected cells
Assay type: cell-based
Description: (b) Neuronal Activity/Integrity. Toxic aggregates of α-synuclein disrupt the integrity of cell membranes. The disruptive effect of α-synuclein and the ability of test compounds to reverse the α-synuclein-mediated disruption of cell membranes are measured using calcein. Calcein is a fluorescent marker that is retained in healthy cells but is not retained in cells with diminished cellular integrity. To ascertain the effects on neuronal activity, cells are infected with LV-α-synuclein for 24 h, treated with test compound at a range of concentrations, for example 0.01-10 μM, for 24 h in serum free media, loaded with Fluo-4 or calcein, and analyzed by FLIPR assay to determine Ca^2+ and calcein levels. […] Test compounds are evaluated for the ability to restore concentrations of Ca^2+ to those in cells not infected with LV-α-synuclein. […] Test compounds are evaluated, in a concentration-dependent manner, for their ability to reverse the effect of α-synuclein on levels of calcein.

| Percent reversal of α-Syn mediated disruption of cell integrity [%] | Structure (SMILES) |
| --- | --- |
| 187 | CCCc1nnc(C(Cc2c[nH]c3ccccc23)NC(=O)c2cnc(N3CCN(C)CC3)s2)s1 (stereo not drawn) [Example 9, N-(2-(1H-indol-3-yl)-1-(5-propyl-1,3,4-thiadiazol-2-yl)ethyl)-2-(4-methylpiperazin-1-yl)thiazole-5-carboxamide] |
| 115 | CCCc1nnc(C(Cc2c[nH]c3ccccc23)NC(=O)c2cnc(N3CCN(C)CC3)s2)[nH]1 (stereo not drawn) [Example 10, N-(2-(1H-indol-3-yl)-1-(5-propyl-4H-1,2,4-triazol-3-yl)ethyl)-2-(4-methylpiperazin-1-yl)thiazole-5-carboxamide] |

The next lines start with the molecule.

| Structure (SMILES) | Percent reversal of α-Syn mediated disruption of cell integrity [%] |
| --- | --- |
| CCCCNC(=N)C(Cc1c[nH]c2ccccc12)NC(=O)c1cnc(N2CCN(C)CC2)s1 (stereo not drawn) [Example 7, N-(1-(butylamino)-1-imino-3-(1H-indol-3-yl)propan-2-yl)-2-(4-methylpiperazin-1-yl)thiazole-5-carboxamide] | 189 |
| CCCCn1nnc(C(Cc2c[nH]c3ccccc23)NC(=O)c2cnc(N3CCN(C)CC3)s2)n1 (stereo not drawn) [Example 5, N-(1-(2-butyl-2H-tetrazol-5-yl)-2-(1H-indol-3-yl)ethyl)-2-(4-methylpiperazin-1-yl)thiazole-5-carboxamide] | 110 |
| CCCCNNC(=O)C(Cc1c[nH]c2ccccc12)NC(=O)c1cnc(N2CCN(C)CC2)s1 (stereo not drawn) [Example 8, N-(1-(2-butylhydrazinyl)-3-(1H-indol-3-yl)-1-oxopropan-2-yl)-2-(4-methylpiperazin-1-yl)thiazole-5-carboxamide] | 135 |
| CCc1csc(C(Cc2c[nH]c3ccccc23)NC(=O)c2cnc(N3CCN(C)CC3)s2)n1 (stereo not drawn) [Example 6, N-(1-(4-ethylthiazol-2-yl)-2-(1H-indol-3-yl)ethyl)-2-(4-methylpiperazin-1-yl)thiazole-5-carboxamide] | 137 |
